Data from patent US8772480B2, “Inhibitors of PI3 kinase and/or mTOR” (priority 2009, dated 2014).

Legend:
Type in all cases: biochemical
[1] = target: ProfilerPro Kinase Selectivity Assay Kit kinases (Homo sapiens, UniProt O14965); conditions: AURORA A; 1 μM compound concentration
Experimental: (§1) Compounds were profiled using a LabChip® EZ Reader II platform and a ProfilerPro Kinase Selectivity Assay Kit (Caliper Lifesciences Inc., Hopkinton, Mass.). Compounds were tested at a concentration of 1 M in duplicate, with mean data reported as percent of control (POC).

[2] = target: ProfilerPro Kinase Selectivity Assay Kit kinases (Homo sapiens, UniProt P36888); conditions: FLT3; 1 μM compound concentration
Experimental: as §1

[3] = target: ProfilerPro Kinase Selectivity Assay Kit kinases (Homo sapiens, UniProt Q06187); conditions: BTK; 1 μM compound concentration
Experimental: as §1

[4] = target: ProfilerPro Kinase Selectivity Assay Kit kinases (Homo sapiens, UniProt P06213); conditions: INSR; 1 μM compound concentration
Experimental: as §1

[5] = target: ProfilerPro Kinase Selectivity Assay Kit kinases (Homo sapiens, UniProt Q13627); conditions: DYRK1a; 1 μM compound concentration
Experimental: as §1

[6] = target: ProfilerPro Kinase Selectivity Assay Kit kinases (Homo sapiens, UniProt P27361); conditions: ERK1; 1 μM compound concentration
Chain of ProfilerPro Kinase Selectivity Assay Kit kinases (Homo sapiens, UniProt P27361) (P27361 2-379 limits assumed): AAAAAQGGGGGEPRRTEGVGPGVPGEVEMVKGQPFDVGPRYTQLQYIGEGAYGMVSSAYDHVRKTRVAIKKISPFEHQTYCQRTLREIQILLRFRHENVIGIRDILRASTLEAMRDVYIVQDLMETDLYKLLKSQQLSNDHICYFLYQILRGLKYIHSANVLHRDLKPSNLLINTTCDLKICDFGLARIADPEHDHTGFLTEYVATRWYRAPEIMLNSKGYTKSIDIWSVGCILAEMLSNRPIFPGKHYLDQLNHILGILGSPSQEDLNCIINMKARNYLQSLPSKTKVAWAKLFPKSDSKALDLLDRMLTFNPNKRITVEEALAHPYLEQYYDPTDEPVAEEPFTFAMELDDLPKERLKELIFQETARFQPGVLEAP
Experimental: as §1

[7] = target: ProfilerPro Kinase Selectivity Assay Kit kinases (Homo sapiens, UniProt P12931); conditions: SRC; 1 μM compound concentration
Chain of ProfilerPro Kinase Selectivity Assay Kit kinases (Homo sapiens, UniProt P12931) (P12931 2-536 limits assumed): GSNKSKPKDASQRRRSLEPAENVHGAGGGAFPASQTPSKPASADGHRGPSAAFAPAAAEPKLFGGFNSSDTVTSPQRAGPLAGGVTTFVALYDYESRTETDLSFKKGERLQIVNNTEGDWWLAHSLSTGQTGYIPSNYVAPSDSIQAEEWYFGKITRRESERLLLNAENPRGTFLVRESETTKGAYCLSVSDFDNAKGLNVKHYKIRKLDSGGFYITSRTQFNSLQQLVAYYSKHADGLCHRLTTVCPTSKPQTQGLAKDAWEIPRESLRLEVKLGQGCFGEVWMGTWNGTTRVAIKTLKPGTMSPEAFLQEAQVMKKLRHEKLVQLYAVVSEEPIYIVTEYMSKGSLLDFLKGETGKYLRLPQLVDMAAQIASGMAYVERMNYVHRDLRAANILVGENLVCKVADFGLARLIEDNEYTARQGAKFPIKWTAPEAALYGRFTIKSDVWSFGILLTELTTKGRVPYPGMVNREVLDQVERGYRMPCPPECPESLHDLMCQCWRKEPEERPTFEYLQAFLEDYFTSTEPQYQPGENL
Experimental: as §1

[8] = target: ProfilerPro Kinase Selectivity Assay Kit kinases (Homo sapiens, UniProt O95819); conditions: HGK; 1 μM compound concentration
Experimental: as §1

[9] = target: ProfilerPro Kinase Selectivity Assay Kit kinases (Homo sapiens, UniProt O14757); conditions: CHK1; 1 μM compound concentration
Experimental: as §1

[10] = target: ProfilerPro Kinase Selectivity Assay Kit kinases (Homo sapiens, UniProt Q16539); conditions: p38 alpha; 1 μM compound concentration
Chain of ProfilerPro Kinase Selectivity Assay Kit kinases (Homo sapiens, UniProt Q16539) (Q16539 2-360 limits assumed): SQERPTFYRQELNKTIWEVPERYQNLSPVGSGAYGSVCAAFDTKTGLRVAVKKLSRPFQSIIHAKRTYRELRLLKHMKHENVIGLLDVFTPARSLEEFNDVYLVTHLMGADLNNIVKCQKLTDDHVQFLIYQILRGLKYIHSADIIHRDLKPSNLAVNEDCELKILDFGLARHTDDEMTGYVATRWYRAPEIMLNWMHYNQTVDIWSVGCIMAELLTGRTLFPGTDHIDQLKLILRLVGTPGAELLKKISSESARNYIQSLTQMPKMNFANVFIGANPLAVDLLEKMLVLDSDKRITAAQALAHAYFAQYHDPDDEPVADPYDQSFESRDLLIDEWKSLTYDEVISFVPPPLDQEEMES
Experimental: as §1

[11] = target: ProfilerPro Kinase Selectivity Assay Kit kinases (Homo sapiens, UniProt P04049); conditions: cRAF; 1 μM compound concentration
Experimental: as §1

[12] = target: ProfilerPro Kinase Selectivity Assay Kit kinases (Homo sapiens, UniProt P49841); conditions: GSK3 beta; 1 μM compound concentration
Experimental: as §1

[13] = target: ProfilerPro Kinase Selectivity Assay Kit kinases (Homo sapiens, UniProt P24941); conditions: CDK2; 1 μM compound concentration
Experimental: as §1

[14] = target: ProfilerPro Kinase Selectivity Assay Kit kinases (Homo sapiens, UniProt P07948); conditions: LYN; 1 μM compound concentration
Chain of ProfilerPro Kinase Selectivity Assay Kit kinases (Homo sapiens, UniProt P07948) (P07948 2-512 limits assumed): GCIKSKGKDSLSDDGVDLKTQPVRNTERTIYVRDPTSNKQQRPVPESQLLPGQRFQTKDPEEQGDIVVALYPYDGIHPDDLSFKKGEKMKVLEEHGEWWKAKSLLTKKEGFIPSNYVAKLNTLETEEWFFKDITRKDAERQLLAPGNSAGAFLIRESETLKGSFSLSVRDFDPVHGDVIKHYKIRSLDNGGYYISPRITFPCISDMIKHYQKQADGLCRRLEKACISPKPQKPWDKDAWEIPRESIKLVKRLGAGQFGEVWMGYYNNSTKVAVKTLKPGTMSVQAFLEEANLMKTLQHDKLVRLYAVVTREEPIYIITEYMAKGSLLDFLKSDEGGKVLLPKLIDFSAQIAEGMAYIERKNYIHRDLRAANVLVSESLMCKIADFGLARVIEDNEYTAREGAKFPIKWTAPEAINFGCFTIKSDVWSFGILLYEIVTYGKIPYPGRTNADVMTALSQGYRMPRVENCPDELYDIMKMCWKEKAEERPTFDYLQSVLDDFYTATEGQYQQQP
Experimental: as §1

[15] = target: ProfilerPro Kinase Selectivity Assay Kit kinases (Homo sapiens, UniProt P08069); conditions: IGF1R; 1 μM compound concentration
Experimental: as §1

[16] = target: ProfilerPro Kinase Selectivity Assay Kit kinases (Homo sapiens, UniProt Q15418); conditions: RSK1; 1 μM compound concentration
Experimental: as §1

[17] = target: ProfilerPro Kinase Selectivity Assay Kit kinases (Homo sapiens, UniProt Q13188); conditions: MST2; 1 μM compound concentration
Experimental: as §1

[18] = target: ProfilerPro Kinase Selectivity Assay Kit kinases (Homo sapiens, UniProt P28482); conditions: ERK2; 1 μM compound concentration
Chain of ProfilerPro Kinase Selectivity Assay Kit kinases (Homo sapiens, UniProt P28482) (P28482 2-360 limits assumed): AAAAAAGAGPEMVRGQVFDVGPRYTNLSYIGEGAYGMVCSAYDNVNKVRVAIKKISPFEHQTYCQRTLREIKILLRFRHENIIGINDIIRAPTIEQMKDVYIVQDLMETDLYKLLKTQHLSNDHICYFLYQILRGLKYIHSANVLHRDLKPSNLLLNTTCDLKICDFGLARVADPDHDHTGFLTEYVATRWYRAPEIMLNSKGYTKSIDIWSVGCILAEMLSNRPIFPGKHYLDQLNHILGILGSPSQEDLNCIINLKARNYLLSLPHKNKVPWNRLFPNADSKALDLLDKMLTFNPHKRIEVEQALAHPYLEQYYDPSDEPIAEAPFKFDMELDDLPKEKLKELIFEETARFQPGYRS
Experimental: as §1

[19] = target: ProfilerPro Kinase Selectivity Assay Kit kinases (Homo sapiens, UniProt P08581); conditions: cMET; 1 μM compound concentration
Experimental: as §1

[20] = target: ProfilerPro Kinase Selectivity Assay Kit kinases (Homo sapiens, UniProt P17612); conditions: PKA alpha; 1 μM compound concentration
Experimental: as §1

[21] = target: ProfilerPro Kinase Selectivity Assay Kit kinases (Homo sapiens, UniProt Q8IW41); conditions: PRAK; 1 μM compound concentration
Experimental: as §1

[22] = target: ProfilerPro Kinase Selectivity Assay Kit kinases (Homo sapiens, UniProt Q9P0L2); conditions: MARK1; 1 μM compound concentration
Experimental: as §1

[23] = target: ProfilerPro Kinase Selectivity Assay Kit kinases (Homo sapiens, UniProt P00519); conditions: ABL; 1 μM compound concentration
Experimental: as §1

[24] = target: ProfilerPro Kinase Selectivity Assay Kit kinases (Homo sapiens, UniProt P31749); conditions: AKT1; 1 μM compound concentration
Experimental: as §1

[25] = target: ProfilerPro Kinase Selectivity Assay Kit kinases (Homo sapiens, UniProt Q13976); conditions: PKGa2; 1 μM compound concentration
Experimental: as §1

[26] = target: ProfilerPro Kinase Selectivity Assay Kit kinases (Homo sapiens, UniProt O75582); conditions: MSK1; 1 μM compound concentration
Experimental: as §1

[27] = target: ProfilerPro Kinase Selectivity Assay Kit kinases (Homo sapiens, UniProt P48730); conditions: CK1 delta; 1 μM compound concentration
Experimental: as §1

[28] = target: ProfilerPro Kinase Selectivity Assay Kit kinases (Homo sapiens, UniProt P06239); conditions: LCK; 1 μM compound concentration
Chain of ProfilerPro Kinase Selectivity Assay Kit kinases (Homo sapiens, UniProt P06239) (P06239 2-509 limits assumed): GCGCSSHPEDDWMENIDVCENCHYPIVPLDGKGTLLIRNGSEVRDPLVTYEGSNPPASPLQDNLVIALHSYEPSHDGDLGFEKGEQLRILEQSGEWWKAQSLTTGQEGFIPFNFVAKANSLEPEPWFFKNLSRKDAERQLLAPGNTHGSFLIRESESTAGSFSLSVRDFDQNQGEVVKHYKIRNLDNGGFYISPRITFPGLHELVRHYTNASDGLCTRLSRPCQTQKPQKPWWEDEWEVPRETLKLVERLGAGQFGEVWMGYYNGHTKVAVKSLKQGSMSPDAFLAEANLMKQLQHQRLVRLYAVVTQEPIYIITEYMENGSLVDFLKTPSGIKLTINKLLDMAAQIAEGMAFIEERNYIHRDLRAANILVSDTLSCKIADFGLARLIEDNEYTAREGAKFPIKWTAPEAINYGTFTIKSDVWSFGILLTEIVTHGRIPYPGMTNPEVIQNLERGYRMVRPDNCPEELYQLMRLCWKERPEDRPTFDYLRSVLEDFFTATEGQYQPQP
Experimental: as §1

[29] = target: ProfilerPro Kinase Selectivity Assay Kit kinases (Homo sapiens, UniProt P11362); conditions: FGFR1; 1 μM compound concentration
Chain of ProfilerPro Kinase Selectivity Assay Kit kinases (Homo sapiens, UniProt P11362) (P11362 22-822 limits assumed): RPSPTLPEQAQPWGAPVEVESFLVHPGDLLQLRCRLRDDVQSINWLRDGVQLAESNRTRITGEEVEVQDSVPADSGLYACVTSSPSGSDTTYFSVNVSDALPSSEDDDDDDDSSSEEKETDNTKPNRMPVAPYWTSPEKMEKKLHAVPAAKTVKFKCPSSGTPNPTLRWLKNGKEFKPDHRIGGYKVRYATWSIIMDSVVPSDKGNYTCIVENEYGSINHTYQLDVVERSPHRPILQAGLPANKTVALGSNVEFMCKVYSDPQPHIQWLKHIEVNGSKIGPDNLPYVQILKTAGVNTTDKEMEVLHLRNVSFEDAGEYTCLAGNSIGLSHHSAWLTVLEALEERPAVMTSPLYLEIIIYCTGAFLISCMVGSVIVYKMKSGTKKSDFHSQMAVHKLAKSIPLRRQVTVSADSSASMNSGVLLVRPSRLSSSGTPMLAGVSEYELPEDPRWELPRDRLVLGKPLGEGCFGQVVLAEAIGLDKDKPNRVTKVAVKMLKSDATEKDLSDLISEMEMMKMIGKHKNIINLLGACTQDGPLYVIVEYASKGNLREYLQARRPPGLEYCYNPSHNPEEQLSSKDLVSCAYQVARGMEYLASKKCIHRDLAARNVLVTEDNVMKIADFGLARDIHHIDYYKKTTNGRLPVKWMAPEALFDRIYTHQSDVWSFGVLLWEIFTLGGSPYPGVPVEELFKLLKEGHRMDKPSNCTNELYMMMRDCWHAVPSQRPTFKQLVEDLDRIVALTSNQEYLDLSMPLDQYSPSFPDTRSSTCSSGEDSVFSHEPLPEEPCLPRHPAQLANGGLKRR
Experimental: as §1

[30] = target: ProfilerPro Kinase Selectivity Assay Kit kinases (Homo sapiens, UniProt Q16566); conditions: CAMK4; 1 μM compound concentration
Experimental: as §1

[31] = target: ProfilerPro Kinase Selectivity Assay Kit kinases (Homo sapiens, UniProt P23443); conditions: p70S6K; 1 μM compound concentration
Experimental: as §1

Chain of ProfilerPro Kinase Selectivity Assay Kit kinases (Homo sapiens, UniProt P36888) (P36888 27-993 limits assumed): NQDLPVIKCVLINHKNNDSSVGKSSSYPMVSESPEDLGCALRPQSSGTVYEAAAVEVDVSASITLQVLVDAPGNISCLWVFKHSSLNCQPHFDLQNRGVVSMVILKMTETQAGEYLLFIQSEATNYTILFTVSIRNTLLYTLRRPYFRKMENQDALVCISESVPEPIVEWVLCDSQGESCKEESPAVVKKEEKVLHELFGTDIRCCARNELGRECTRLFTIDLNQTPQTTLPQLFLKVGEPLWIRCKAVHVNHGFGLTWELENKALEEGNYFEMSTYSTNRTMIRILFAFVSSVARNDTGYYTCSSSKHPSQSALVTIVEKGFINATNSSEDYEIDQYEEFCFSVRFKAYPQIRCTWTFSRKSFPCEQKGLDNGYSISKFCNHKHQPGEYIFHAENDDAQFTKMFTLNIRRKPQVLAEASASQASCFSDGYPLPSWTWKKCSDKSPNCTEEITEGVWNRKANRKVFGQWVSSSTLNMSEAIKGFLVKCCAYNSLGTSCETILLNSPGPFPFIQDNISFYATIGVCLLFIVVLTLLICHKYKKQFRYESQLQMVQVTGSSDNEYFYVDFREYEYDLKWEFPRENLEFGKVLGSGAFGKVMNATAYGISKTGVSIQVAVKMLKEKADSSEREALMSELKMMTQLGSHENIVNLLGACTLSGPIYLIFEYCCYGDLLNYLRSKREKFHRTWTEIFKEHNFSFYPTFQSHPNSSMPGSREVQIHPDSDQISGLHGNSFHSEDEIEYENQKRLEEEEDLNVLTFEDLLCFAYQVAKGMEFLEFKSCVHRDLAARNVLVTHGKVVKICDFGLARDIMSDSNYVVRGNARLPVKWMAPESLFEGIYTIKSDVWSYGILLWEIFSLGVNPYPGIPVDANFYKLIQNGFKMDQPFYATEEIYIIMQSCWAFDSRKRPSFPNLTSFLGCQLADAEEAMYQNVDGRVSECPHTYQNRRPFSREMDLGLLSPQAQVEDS

Structure (SMILES) | POC (Percent of control) AURORA A [1] [POC] | POC (Percent of control) FLT3 [2] [POC] | POC (Percent of control) BTK [3] [POC] | POC (Percent of control) INSR [4] [POC] | POC (Percent of control) DYRK1a [5] [POC] | POC (Percent of control) ERK1 [6] [POC] | POC (Percent of control) SRC [7] [POC] | POC (Percent of control) HGK [8] [POC] | POC (Percent of control) CHK1 [9] [POC] | POC (Percent of control) p38 alpha [10] [POC] | POC (Percent of control) cRAF [11] [POC] | POC (Percent of control) GSK3 beta [12] [POC] | POC (Percent of control) CDK2 [13] [POC] | POC (Percent of control) LYN [14] [POC] | POC (Percent of control) IGF1R [15] [POC] | POC (Percent of control) RSK1 [16] [POC] | POC (Percent of control) MST2 [17] [POC] | POC (Percent of control) ERK2 [18] [POC] | POC (Percent of control) cMET [19] [POC] | POC (Percent of control) PKA alpha [20] [POC] | further results
c1cnc(Nc2cccc3[nH]ncc23)c(-c2ncnc3[nH]cnc23)c1 [Example 18, N-(3-(9H-Purin-6-yl)Pyridin-2-yl)-1H-Indazol-4-Amine] | 84 | 106 | 99 | 90 | 59 | 104 | 93 | 92 | 97 | 86 | 1 | 92 | 91 | 81 | 64 | 96 | 96 | 96 | 104 | 97 | POC (Percent of control) PRAK [21]: 95 POC; POC (Percent of control) MARK1 [22]: 112 POC; POC (Percent of control) ABL [23]: 77 POC; POC (Percent of control) AKT1 [24]: 103 POC; POC (Percent of control) PKGa2 [25]: 90 POC; POC (Percent of control) MSK1 [26]: 97 POC; POC (Percent of control) CK1 delta [27]: 35 POC; POC (Percent of control) LCK [28]: 72 POC; POC (Percent of control) FGFR1 [29]: 62 POC; POC (Percent of control) CAMK4 [30]: 71 POC; POC (Percent of control) p70S6K [31]: 98 POC
c1cnc(Nc2cccc3[nH]ccc23)c(-c2ncnc3[nH]cnc23)c1 [Example 19, N-(3-(9H-Purin-6-yl)Pyridin-2-yl)-1H-Indol-4-Amine] | 24 | 25 | 75 | 88 | 66 | 93 | 23 | 50 | 83 | 86 | 56 | 79 | 90 | 50 | 94 | 87 | 82 | 94 | 89 | 70 | POC (Percent of control) PRAK [21]: 84 POC; POC (Percent of control) MARK1 [22]: 95 POC; POC (Percent of control) ABL [23]: 19 POC; POC (Percent of control) AKT1 [24]: 94 POC; POC (Percent of control) PKGa2 [25]: 93 POC; POC (Percent of control) MSK1 [26]: 106 POC; POC (Percent of control) CK1 delta [27]: 72 POC; POC (Percent of control) LCK [28]: 70 POC; POC (Percent of control) FGFR1 [29]: 51 POC; POC (Percent of control) CAMK4 [30]: 77 POC; POC (Percent of control) p70S6K [31]: 91 POC
COc1ccc(Nc2ncccc2-c2ncnc3[nH]cnc23)cn1 [Example 20, N-(6-Methoxypyridin-3-yl)-3-(9H-Purin-6-yl)Pyridin-2-Amine] | 96 | 120 | 98 | 97 | 102 | 96 | 95 | 94 | 104 | 93 | 59 | 95 | 96 | 92 | 93 | 97 | 95 | 101 | 106 | 97 | POC (Percent of control) PRAK [21]: 99 POC; POC (Percent of control) MARK1 [22]: 108 POC; POC (Percent of control) ABL [23]: 99 POC; POC (Percent of control) AKT1 [24]: 105 POC; POC (Percent of control) PKGa2 [25]: 98 POC; POC (Percent of control) MSK1 [26]: 93 POC; POC (Percent of control) CK1 delta [27]: 93 POC; POC (Percent of control) LCK [28]: 101 POC; POC (Percent of control) FGFR1 [29]: 94 POC; POC (Percent of control) CAMK4 [30]: 100 POC; POC (Percent of control) p70S6K [31]: 104 POC
